Measured values as given in patent publication US20250311727A1, “SUBSTITUTED 2-AMINOAZINES AND SALTS THEREOF, AND USE THEREOF AS HERBICIDAL ACTIVE SUBSTANCES” (BAYER AKTIENGESELLSCHAFT, priority 2022, published 2025).

Experiments:
Assay type in all cases: in vivo
[1] = tested on: Abutilon theophrasti; experiment: Post-emergence herbicidal efficacy at 320 g/ha, ABUTH; conditions: rated visually after about 3 weeks vs untreated controls, 100% = plants have died
From the text: (§1) Unwanted plants/weeds: • ABUTH: Abutilon theophrasti • ALOMY: Alopecurus myosuroides • AMARE: Amaranthus retroflexus • DIGSA: Digitaria sanguinalis • ECHCG: Echinochloa crus-galli • KCHSC: Kochia scoparia • LOLRI: Lolium rigidum • MATIN: Matricaria inodora • POAAN: Poa annua • POLCO: Polygonum convolvulus • SETVI: Setaria viridis • STEME: Stellaria media • VERPE: Veronica persica • VIOTR: Viola tricolor A. Post-Emergence Herbicidal Efficacy at 320 g/ha
(§2) Seeds of mono- and dicotyledonous weed plants were placed in plastic pots in sandy loam soil (doubly sown with in each case one species of mono- or dicotyledonous weed plants per pot), covered with soil and cultivated in a greenhouse under controlled growth conditions. 2 to 3 weeks after sowing, the test plants were treated at the one-leaf stage. The compounds of the invention, formulated in the form of wettable powders (WP) or as emulsion concentrates (EC), were applied to the green parts of the plants as aqueous suspension or emulsion with addition of 0.5% additive at a water application rate equivalent to 600 litres per hectare. After the test plants had been kept in the greenhouse under optimum growth conditions for about 3 weeks, the activity of the preparations was rated visually in comparison to untreated controls.
(§3) For example, 100% activity=the plants have died, 0% activity=like control plants.
(§4) Tables A1 to A10 below show the effects of selected compounds of the general formula (I) according to Table 1 on various harmful plants and at an application rate corresponding to 320 g/ha, which were obtained by the trial procedure specified above.

[2] = tested on: Amaranthus retroflexus; experiment: Post-emergence herbicidal efficacy at 320 g/ha, AMARE; conditions: rated visually after about 3 weeks vs untreated controls, 100% = plants have died
From the text: as §1, §2, §3, §4

[3] = tested on: Digitaria sanguinalis; experiment: Post-emergence herbicidal efficacy at 320 g/ha, DIGSA; conditions: rated visually after about 3 weeks vs untreated controls, 100% = plants have died
From the text: as §1, §2, §3, §4

[4] = tested on: Echinochloa crus-galli; experiment: Post-emergence herbicidal efficacy at 320 g/ha, ECHCG; conditions: rated visually after about 3 weeks vs untreated controls, 100% = plants have died
From the text: as §1, §2, §3, §4

[5] = tested on: Setaria viridis; experiment: Post-emergence herbicidal efficacy at 320 g/ha, SETVI; conditions: rated visually after about 3 weeks vs untreated controls, 100% = plants have died
From the text: as §1, §2, §3, §4

[6] = tested on: Stellaria media; experiment: Post-emergence herbicidal efficacy at 320 g/ha, STEME; conditions: rated visually after about 3 weeks vs untreated controls, 100% = plants have died
From the text: as §1, §2, §3, §4

[7] = tested on: Veronica persica; experiment: Post-emergence herbicidal efficacy at 320 g/ha, VERPE; conditions: rated visually after about 3 weeks vs untreated controls, 100% = plants have died
From the text: as §1, §2, §3, §4

[8] = tested on: Amaranthus retroflexus; experiment: Pre-emergence herbicide efficacy at 320 g/ha, AMARE; conditions: scored visually after about 3 weeks vs untreated controls, 100% = plants have died
From the text: as §1
(§5) Seeds of mono- and dicotyledonous weed plants were placed in plastic pots in sandy loam soil (doubly sown with one species each of mono- or dicotyledonous weed plants per pot) and covered with soil. The compounds of the invention, formulated in the form of wettable powders (WP) or as emulsion concentrates (EC), were then applied to the surface of the covering soil as aqueous suspension or emulsion with addition of 0.5% additive at a water application rate of 600 litres per hectare (converted). After the treatment, the pots were placed in a greenhouse and kept under good growth conditions for the test plants. After about 3 weeks, the efficacy of the preparations was scored visually in comparison with untreated controls as percentages.
as §3
(§6) Tables C1 to C12 below show the effects of selected compounds of the general formula (I) according to Table 1 on various harmful plants and at an application rate corresponding to 320 g/ha, which were obtained by the trial procedure specified above.

[9] = tested on: Digitaria sanguinalis; experiment: Pre-emergence herbicide efficacy at 320 g/ha, DIGSA; conditions: scored visually after about 3 weeks vs untreated controls, 100% = plants have died
From the text: as §1, §5, §3, §6

[10] = tested on: Echinochloa crus-galli; experiment: Pre-emergence herbicide efficacy at 320 g/ha, ECHCG; conditions: scored visually after about 3 weeks vs untreated controls, 100% = plants have died
From the text: as §1, §5, §3, §6

[11] = tested on: Poa annua; experiment: Pre-emergence herbicide efficacy at 320 g/ha, POAAN; conditions: scored visually after about 3 weeks vs untreated controls, 100% = plants have died
From the text: as §1, §5, §3, §6

[12] = tested on: Setaria viridis; experiment: Pre-emergence herbicide efficacy at 320 g/ha, SETVI; conditions: scored visually after about 3 weeks vs untreated controls, 100% = plants have died
From the text: as §1, §5, §3, §6

[13] = tested on: Stellaria media; experiment: Pre-emergence herbicide efficacy at 320 g/ha, STEME; conditions: scored visually after about 3 weeks vs untreated controls, 100% = plants have died
From the text: as §1, §5, §3, §6

[14] = tested on: Veronica persica; experiment: Pre-emergence herbicide efficacy at 320 g/ha, VERPE; conditions: scored visually after about 3 weeks vs untreated controls, 100% = plants have died
From the text: as §1, §5, §3, §6

[15] = tested on: Amaranthus retroflexus; experiment: Post-emergence herbicidal efficacy at 80 g/ha, AMARE; conditions: rated visually after about 3 weeks vs untreated controls, 100% = plants have died
From the text: as §1
(§7) Seeds of monocotyledonous and dicotyledonous weeds and crop plants were placed in sandy loam in plastic or organic planting pots, covered with soil and cultivated in a greenhouse under controlled growth conditions. 2 to 3 weeks after sowing, the test plants were treated at the one-leaf stage. The compounds of the invention, formulated in the form of wettable powders (WP) or as emulsion concentrates (EC), were then sprayed onto the green parts of the plants as aqueous suspension or emulsion with addition of 0.5% additive at a water application rate of 600 l/ha (converted). After the test plants had been kept in the greenhouse under optimum growth conditions for about 3 weeks, the activity of the preparations was rated visually in comparison to untreated controls. For example, 100% activity=the plants have died, 0% activity=like control plants.
(§8) Tables B1 to B11 below show the effects of selected compounds of the general formula (I) according to Table 1 on various harmful plants and an application rate corresponding to 80 g/ha, which were obtained by the experimental procedure mentioned above.

[16] = tested on: Kochia scoparia; experiment: Post-emergence herbicidal efficacy at 80 g/ha, KCHSC; conditions: rated visually after about 3 weeks vs untreated controls, 100% = plants have died
From the text: as §1, §7, §8

[17] = tested on: Veronica persica; experiment: Post-emergence herbicidal efficacy at 80 g/ha, VERPE; conditions: rated visually after about 3 weeks vs untreated controls, 100% = plants have died
From the text: as §1, §7, §8

[18] = tested on: Amaranthus retroflexus; experiment: Pre-emergence herbicide efficacy at 80 g/ha, AMARE; conditions: scored visually after about 3 weeks vs untreated controls, 100% = plants have died
From the text: as §1
(§9) Seeds of monocotyledonous and dicotyledonous weed plants and crop plants were placed in plastic or organic planting pots and covered with soil. The compounds of the invention, formulated in the form of wettable powders (WP) or as emulsion concentrates (EC), were then applied to the surface of the covering soil as aqueous suspension or emulsion with addition of 0.5% additive at a water application rate equivalent to 600 l/ha. After the treatment, the pots were placed in a greenhouse and kept under good growth conditions for the test plants. After about 3 weeks, the efficacy of the preparations was scored visually in comparison with untreated controls as percentages. For example, 100% activity=the plants have died, 0% activity=like control plants.
(§10) Tables D1 to D12 below show the effects of selected compounds of the general formula (I) according to Table 1 on various harmful plants and an application rate corresponding to 80 g/ha, which were obtained by the experimental procedure mentioned above.

[19] = tested on: Digitaria sanguinalis; experiment: Pre-emergence herbicide efficacy at 80 g/ha, DIGSA; conditions: scored visually after about 3 weeks vs untreated controls, 100% = plants have died
From the text: as §1, §9, §10

[20] = tested on: Kochia scoparia; experiment: Pre-emergence herbicide efficacy at 80 g/ha, KCHSC; conditions: scored visually after about 3 weeks vs untreated controls, 100% = plants have died
From the text: as §1, §9, §10

[21] = tested on: Poa annua; experiment: Post-emergence herbicidal efficacy at 320 g/ha, POAAN; conditions: rated visually after about 3 weeks vs untreated controls, 100% = plants have died
From the text: as §1, §2, §3, §4

[22] = tested on: Matricaria inodora; experiment: Pre-emergence herbicide efficacy at 320 g/ha, MATIN; conditions: scored visually after about 3 weeks vs untreated controls, 100% = plants have died
From the text: as §1, §5, §3, §6

Structure (SMILES)	Post-emergence efficacy at 320 g/ha against AMARE in % [2]	Post-emergence efficacy at 320 g/ha against STEME in % [6]	Post-emergence efficacy at 320 g/ha against VERPE in % [7]	Pre-emergence efficacy at 320 g/ha against AMARE in % [8]	Pre-emergence efficacy at 320 g/ha against DIGSA in % [9]	Pre-emergence efficacy at 320 g/ha against POAAN in % [11]	Pre-emergence efficacy at 320 g/ha against SETVI in % [12]	Pre-emergence efficacy at 320 g/ha against STEME in % [13]	Pre-emergence efficacy at 320 g/ha against VERPE in % [14]	also measured
Fc1cccc(Nc2ncc(Cl)cn2)c1-n1cc(C(F)(F)F)cn1 [Example 1-47]	90%	90%	90%	100%	90%	100%	100%	90%	100%	Post-emergence efficacy at 320 g/ha against ABUTH in % [1]: 90%; Post-emergence efficacy at 320 g/ha against DIGSA in % [3]: 90%; Post-emergence efficacy at 320 g/ha against ECHCG in % [4]: 90%; Post-emergence efficacy at 320 g/ha against SETVI in % [5]: 90%; Pre-emergence efficacy at 320 g/ha against ECHCG in % [10]: 100%
Clc1cnc(Cc2ccccc2Nc2ncc(Cl)cn2)nc1 [Example 1-51]	–	–	–	–	–	–	–	–	–	Post-emergence efficacy at 80 g/ha against AMARE in % [15]: 100%; Post-emergence efficacy at 80 g/ha against KCHSC in % [16]: 100%; Post-emergence efficacy at 80 g/ha against VERPE in % [17]: 80%; Pre-emergence efficacy at 80 g/ha against AMARE in % [18]: 100%; Pre-emergence efficacy at 80 g/ha against DIGSA in % [19]: 80%; Pre-emergence efficacy at 80 g/ha against KCHSC in % [20]: 100%
N#Cc1cccc(Nc2ncc(Cl)cn2)c1Cc1ccc(F)cc1 [Example 1-23]	100%	100%	100%	100%	90%	100%	100%	90%	90%	Post-emergence efficacy at 320 g/ha against POAAN in % [21]: 100%; Pre-emergence efficacy at 320 g/ha against MATIN in % [22]: 100%
